Reference: ChEMBL document CHEMBL4184097, “Design, synthesis, and evaluation of novel inhibitors for wild-type human serine racemase” (Bioorg Med Chem Lett, 2018)
pIC50: −log10 of the molar value.

How the values were obtained:
[1] = molecular target: T1, Serine racemase (Homo sapiens) (UniProt Q9GZT4); experiment: Inhibition of wild-type serine racemase (unknown origin) assessed as residual activity by measuring D-serine level at 1 mM using […] as substrate and PLP as co-factor pretreated for 30 mins followed by substrate and co-factor addition measured after 30 mins relative to control
T1 sequence (whole entry): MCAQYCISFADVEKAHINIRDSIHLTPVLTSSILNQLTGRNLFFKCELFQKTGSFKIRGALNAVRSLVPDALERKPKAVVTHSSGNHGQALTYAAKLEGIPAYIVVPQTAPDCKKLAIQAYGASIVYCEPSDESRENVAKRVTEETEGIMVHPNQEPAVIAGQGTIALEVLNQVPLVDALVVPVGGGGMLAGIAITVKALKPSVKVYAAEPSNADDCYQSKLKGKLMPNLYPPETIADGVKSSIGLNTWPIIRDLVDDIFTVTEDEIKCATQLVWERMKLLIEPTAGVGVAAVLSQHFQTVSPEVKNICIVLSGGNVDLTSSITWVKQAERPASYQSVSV

Serine racemase = molecular target: T2, Serine racemase (Homo sapiens, UniProt Q9GZT4); experiment: Inhibition of wild-type serine racemase (unknown origin) assessed as residual activity by measuring D-serine level using […] as substrate and PLP as co-factor pretreated for 30 mins followed by substrate and co-factor addition measured after 30 mins
T2 sequence (Q9GZT4 whole entry): T1 sequence (whole entry)

| Compound | Activity [1] | pIC50 (Serine racemase) |
| --- | --- | --- |
| COc1ccccc1CCCC(=O)CCC(=O)Nc1ccc(NC(C)=O)cc1 | 100% |  |
| COc1ccccc1SCCC(=O)NCC(=O)Nc1ccc(NC(C)=O)cc1 | 100% |  |
| CC(=O)Nc1ccc(NC(=O)COC(=O)CCSc2cccc(Cl)c2)cc1 | 100% |  |
| COc1cccc(SCCC(=O)OCC(=O)Nc2ccc(NC(C)=O)cc2)c1 | 61% |  |
| COc1ccccc1CCCC(=O)OCC(=O)Nc1ccc(NC(C)=O)cc1 | 76% |  |
| CC(=O)c1ccc(NC(=O)NNC(=O)Cc2ccc(Cl)c(Cl)c2)cc1 | 56% |  |
| CC(=O)Nc1ccc(NC(=O)COC(=O)CCOc2ccccc2F)cc1 | 88% |  |
| COc1ccc(SCCC(=O)OCC(=O)Nc2ccc(NC(C)=O)cc2)cc1 | 65% |  |

Results, then the molecule that gave them:

| Activity [1] | pIC50 (Serine racemase) | Compound |
| --- | --- | --- |
| 72% |  | CC(=O)Nc1ccc(NC(=O)COC(=O)CCSc2ccccc2)cc1 |
| 84% |  | CC(=O)Nc1ccc(NC(=O)COC(=O)CCSc2ccccc2Cl)cc1 |
| 91% |  | CCc1ccccc1NC(=O)C(C)OC(=O)CCSc1ccccc1Cl (centres undefined) |
| 100% |  | CC(=O)Nc1ccc(NC(=O)CNC(=O)CCSc2ccccc2Cl)cc1 |
| 55% |  | CC(=O)Nc1ccc(NC(=O)COC(=O)CCSc2ccccc2F)cc1 |
| 91% |  | CC(OC(=O)CCSc1ccccc1Cl)C(=O)Nc1ccccc1 (centres undefined) |
| 36% | 3.08 | COc1ccccc1SCCC(=O)OCC(=O)Nc1ccc(NC(C)=O)cc1 |
| 92% |  | COc1ccccc1SCCC(=O)NC(C)C(=O)Nc1ccc(NC(C)=O)cc1 (centres undefined) |
| 52% |  | CC(=O)Nc1ccc(NC(=O)C(C)NC(=O)CCSc2ccccc2Cl)cc1 (centres undefined) |
| 49% |  | CC(=O)Nc1ccc(NC(=O)C(C)OC(=O)CCSc2ccccc2Cl)cc1 (centres undefined) |
